According to the supplement of paper PMC10883282:

How the values were obtained:
Assay in all cases: standardised AUC of viability dose-response curve (72 h) (fraction (0-1)); higher = less growth inhibition (more resistant)
[1] = test system: A204
In short: (§1)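 Viability of sarcoma cell lines was read with ATPLite after 72 h of triplicate treatment in 384-well plates with 2.5 µl of compound from a compound-plate series of 10 mM to 0.0002 mM. Viability was scaled 1 (full) to 0 (none) and fitted with a four-parameter log-logistic model for each drug and cell line. The reported standardised area under the dose-response curve in log-dose space comes from a modified drexplorer computeAUC, where 1 is no response and 0 is full response.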

[2] = test system: G401
In short: as §1

[3] = test system: HS729
In short: as §1

[4] = test system: HT1080
In short: as §1

[5] = test system: KHOS-240S
In short: as §1

[6] = test system: KHOS-NP
In short: as §1

[7] = test system: MES-SA
In short: as §1

[8] = test system: RD-ES
In short: as §1

[9] = test system: RD
In short: as §1

[10] = test system: SK-ES-1
In short: as §1

[11] = test system: SK-LMS-1
In short: as §1

[12] = test system: SW1353
In short: as §1

[13] = test system: SW684
In short: as §1

[14] = test system: SW872
In short: as §1

[15] = test system: SW982
In short: as §1

[16] = test system: SYO-1
In short: as §1

[17] = test system: VA-ES-BJ
In short: as §1

| Compound | standardised AUC [1] | standardised AUC [2] | standardised AUC [3] | standardised AUC [4] | standardised AUC [5] | standardised AUC [6] | standardised AUC [7] | standardised AUC [8] | standardised AUC [9] | standardised AUC [10] | standardised AUC [11] | standardised AUC [12] | standardised AUC [13] | standardised AUC [14] | standardised AUC [15] | standardised AUC [16] | standardised AUC [17] |
| --- | --- | --- | --- | --- | --- | --- | --- | --- | --- | --- | --- | --- | --- | --- | --- | --- | --- |
| CN(C)C/C=C/C(=O)Nc1cc2c(Nc3ccc(F)c(Cl)c3)ncnc2cc1O[C@H]1CCOC1 [AFATINIB] | 0.733 | 0.838 | 0.849 | 0.926 | 0.846 | 0.939 | 0.807 | 0.823 | 0.801 | 0.745 | 0.837 | 0.729 | 0.85 | 0.819 | 0.759 | 0.795 | 0.825 |
| COc1cc(Nc2ncc3c(n2)-c2ccc(Cl)cc2C(c2c(F)cccc2OC)=NC3)ccc1C(=O)O [ALISERTIB] | 0.876 | 0.811 | 0.889 | 0.873 | 0.835 | 0.95 | 0.678 | 0.656 | 0.801 | 0.558 | 0.865 | 0.933 | 0.902 | 0.895 | 0.734 | 0.732 | 0.808 |
| CCS(=O)(=O)N1CC(CC#N)(n2cc(-c3ncnc4[nH]ccc34)cn2)C1 [BARICITINIB] | 0.962 | 0.995 | 0.977 | 0.989 | 0.981 | 0.986 | 0.972 | 1 | 1 | 1 | 0.985 | 0.987 | 0.99 | 0.992 | 0.99 | 0.985 | 0.997 |
| COc1cc(N2CCC(N3CCN(C)CC3)CC2)ccc1Nc1ncc(Cl)c(Nc2ccccc2P(C)(C)=O)n1 [BRIGATINIB] | 0.833 | 0.816 | 0.728 | 0.907 | 0.766 | 0.889 | 0.908 | 0.7 | 0.694 | 0.713 | 0.883 | 0.77 | 0.904 | 0.778 | 0.649 | 0.681 | 0.763 |
| Cc1cc2c(F)c(Oc3ncnn4cc(OC[C@@H](C)OC(=O)[C@H](C)N)c(C)c34)ccc2[nH]1 [BRIVANIB ALANINATE] | 0.967 | 0.991 | 0.977 | 0.979 | 0.974 | 0.966 | 0.964 | 0.996 | 0.987 | 0.986 | 0.941 | 0.995 | 0.989 | 1 | 1 | 0.943 | 0.994 |
| O=C(c1ccc(F)c(F)c1Nc1ccc(I)cc1F)N1CC(O)([C@@H]2CCCCN2)C1 [COBIMETINIB] | 0.801 | 0.732 | 0.899 | 0.661 | 0.786 | 0.657 | 0.909 | 0.953 | 0.653 | 0.931 | 0.628 | 0.844 | 0.748 | 0.633 | 0.867 | 0.878 | 0.756 |
| Cc1c2oc3c(C)ccc(C(=O)N[C@@H]4C(=O)N[C@H](C(C)C)C(=O)N5CCC[C@H]5C(=O)N(C)CC(=O)N(C)[C@@H](C(C)C)C(=O)O[C@@H]4C)c3nc-2c(C(=O)N[C@@H]2C(=O)N[C@H](C(C)C)C(=O)N3CCC[C@H]3C(=O)N(C)CC(=O)N(C)[C@@H](C(C)C)C(=O)O[C@@H]2C)c(N)c1=O [DACTINOMYCIN] | 0.365 | 0.348 | 0.504 | 0.464 | 0.408 | 0.451 | 0.258 | 0.418 | 0.432 | 0.272 | 0.566 | 0.492 | 0.778 | 0.56 | 0.396 | 0.444 | 0.453 |
| C[C@@H]1CN(C(=O)c2ccc(NC(=O)c3cc(O[C@H](C)c4c(Cl)ccc(F)c4Cl)c(N)nn3)cc2)C[C@H](C)N1 [ENSARTINIB] | 0.937 | 0.875 | 0.878 | 0.929 | 0.895 | 0.975 | 0.832 | 0.805 | 0.852 | 0.79 | 0.845 | 0.933 | 0.936 | 0.891 | 0.808 | 0.816 | 0.853 |
| C=CC(=O)N1CCC(CNc2ncnc(N)c2-c2ccc(Oc3ccccc3)cc2)CC1 [EVOBRUTINIB] | 0.943 | 0.979 | 0.929 | 0.984 | 0.981 | 0.995 | 0.98 | 0.989 | 0.996 | 0.945 | 0.981 | 0.947 | 0.998 | 0.987 | 0.994 | 0.975 | 0.992 |
| CNC(=O)c1c(C)oc2cc(Oc3ncnc4cc(OC)c(OC)cc34)ccc12 [FRUQUINTINIB] | 0.787 | 0.934 | 0.856 | 0.968 | 0.937 | 0.975 | 0.97 | 0.984 | 0.993 | 0.968 | 0.96 | 0.932 | 0.979 | 0.925 | 0.986 | 0.79 | 0.964 |
| COc1cc2ncnc(Nc3ccc(F)c(Cl)c3)c2cc1OCCCN1CCOCC1 [GEFITINIB] | 0.948 | 0.963 | 0.963 | 0.983 | 0.962 | 0.994 | 0.948 | 0.961 | 0.973 | 0.904 | 0.942 | 0.955 | 0.988 | 0.959 | 0.927 | 0.945 | 0.989 |
| CCc1nc(C(N)=O)c(Nc2ccc(N3CCC(N4CCN(C)CC4)CC3)c(OC)c2)nc1NC1CCOCC1 [GILTERITINIB] | 0.817 | 0.811 | 0.659 | 0.899 | 0.814 | 0.898 | 0.785 | 0.655 | 0.748 | 0.663 | 0.823 | 0.857 | 0.791 | 0.735 | 0.674 | 0.665 | 0.793 |
| O=S(=O)(c1cccc2c(O)nccc12)N1CCCNCC1 [HYDROXYFASUDIL] | 0.98 | 0.99 | 0.917 | 0.999 | 0.975 | 0.981 | 0.967 | 1 | 1 | 0.976 | 0.979 | 0.965 | 0.95 | 0.961 | 0.992 | 0.958 | 0.968 |
| C#Cc1cccc(Nc2ncnc3cc4c(cc23)OCCOCCOCCO4)c1 [ICOTINIB] | 0.958 | 0.995 | 0.918 | 0.988 | 0.99 | 0.996 | 0.976 | 0.985 | 1 | 0.986 | 0.982 | 0.947 | 0.986 | 0.958 | 0.989 | 0.966 | 0.975 |
| CCN1CCN(c2ccc(Nc3cc(N(C)C(=O)Nc4c(Cl)c(OC)cc(OC)c4Cl)ncn3)cc2)CC1 [INFIGRATINIB] | 0.701 | 0.719 | 0.737 | 0.995 | 0.896 | 0.983 | 0.774 | 0.926 | 0.986 | 0.838 | 0.965 | 0.855 | 0.996 | 0.95 | 0.933 | 0.736 | 0.943 |
| CS(=O)(=O)CCNCc1ccc(-c2ccc3ncnc(Nc4ccc(OCc5cccc(F)c5)c(Cl)c4)c3c2)o1 [LAPATINIB] | 0.915 | 0.991 | 0.952 | 0.99 | 0.927 | 0.99 | 0.924 | 0.995 | 0.938 | 0.928 | 0.938 | 0.941 | 0.989 | 0.936 | 0.94 | 0.924 | 0.966 |
| O=C1CCc2c(Oc3ccc4c(c3)[C@@H]3[C@H](O4)[C@H]3c3nc4cc(C(F)(F)F)ccc4[nH]3)ccnc2N1 [LIFIRAFENIB] | 0.805 | 0.946 | 0.95 | 0.963 | 0.938 | 0.882 | 0.956 | 0.988 | 0.924 | 0.955 | 0.904 | 0.96 | 0.999 | 0.87 | 0.931 | 0.88 | 0.987 |
| CNC(=O)c1cccc2cc(Oc3ccnc4cc(OCC5(N)CC5)c(OC)cc34)ccc12 [LUCITANIB] | 0.585 | 0.853 | 0.85 | 1 | 0.901 | 0.994 | 0.908 | 0.964 | 0.985 | 0.95 | 0.94 | 0.893 | 0.973 | 0.985 | 0.975 | 0.74 | 0.994 |
| CCOc1cc2ncc(C#N)c(Nc3ccc(OCc4ccccn4)c(Cl)c3)c2cc1NC(=O)/C=C/CN(C)C [NERATINIB] | 0.755 | 0.851 | 0.872 | 0.877 | 0.873 | 0.889 | 0.745 | 0.822 | 0.775 | 0.693 | 0.847 | 0.753 | 0.901 | 0.817 | 0.717 | 0.818 | 0.83 |
| COC(=O)c1ccc2c(c1)NC(=O)/C2=C(\Nc1ccc(N(C)C(=O)CN2CCN(C)CC2)cc1)c1ccccc1 [NINTEDANIB] | 0.624 | 0.859 | 0.88 | 0.96 | 0.858 | 0.961 | 0.967 | 0.896 | 0.93 | 0.832 | 0.943 | 0.966 | 0.953 | 0.978 | 0.941 | 0.672 | 0.982 |
| Cc1[nH]c(/C=C2\C(=O)Nc3ccccc32)c(C)c1CCC(=O)O [ORANTINIB] | 0.963 | 0.977 | 0.934 | 0.971 | 0.993 | 0.99 | 0.958 | 0.985 | 0.994 | 0.977 | 0.976 | 0.964 | 0.966 | 0.975 | 0.966 | 0.976 | 0.967 |
| CC(=O)c1c(C)c2cnc(Nc3ccc(N4CCNCC4)cn3)nc2n(C2CCCC2)c1=O [PALBOCICLIB] | 0.806 | 0.903 | 0.949 | 0.96 | 0.863 | 0.96 | 0.808 | 0.792 | 0.946 | 0.721 | 0.967 | 0.922 | 0.928 | 0.887 | 0.789 | 0.772 | 0.78 |
| CN(C)C(=O)c1cc2cnc(Nc3ccc(N4CCNCC4)cn3)nc2n1C1CCCC1 [RIBOCICLIB] | 0.909 | 0.917 | 0.987 | 0.993 | 0.961 | 0.997 | 0.94 | 0.865 | 0.946 | 0.816 | 0.963 | 0.939 | 0.984 | 0.95 | 0.952 | 0.86 | 0.903 |
| O=C(/C=C\n1cnc(-c2cc(C(F)(F)F)cc(C(F)(F)F)c2)n1)NNc1cnccn1 [SELINEXOR] | 0.672 | 0.706 | 0.773 | 0.714 | 0.612 | 0.655 | 0.652 | 0.751 | 0.721 | 0.5 | 0.642 | 0.822 | 0.847 | 0.781 | 0.649 | 0.596 | 0.625 |
